Reference: patent publication US10590121B2, “Kinase inhibitors and methods for making and using” (Rigel Pharmaceuticals, Inc., priority 2017, dated 2020)

How the values were obtained:
[1] = system: LPS induced IL-23 (p19/p40) in DC cells differentiated from human PBMC; assay: IL23-p19 ELISA, dendritic cells (DC differentiated from human PBMC), IFNγ primed, LPS stimulated; type: cell-based; details: human PBMC-derived dendritic cells, 1 μg/ml LPS, 18 hours, 10 pt
Method: Compound Screening Using DC Cells
1. Differentiation of PBMC's to DC Cells:
Human PBMC cells (400 million) obtained from the vendor were transferred into a T-175 flask containing 15 ml RPMI media (10% FBS) and incubate for 2 hours at 37° C. After 2 hours, the media including floating cells was aspirated out carefully and 12 ml of fresh RPMI media (10% FBS) containing GMCSF (100 ng/ml) and IL4 (20 ng/ml) was added, and the flask was kept in a 37° C. incubator for 7 days.
After 3 days, fresh GMCSF (100 ng/ml) and IL4 (20 ng/ml) were added to the flask and the incubation continued. After 7 days, the fully differentiated cells were harvested by spinning down (1200 rpm/5 min) and aspirating the media. The cells were suspended in fresh RPMI media (10% FBS) containing 50 ng/ml IFNγ (1000 U/ml) and then plated (50K/well in 100 μl) onto a white clear bottom 96 well plate and left in a 37° C. incubator for 24 hours.
2. Addition of Compounds:
After 24 hours incubation, 100 μl of RPMI media was added containing 2× concentrated test compound per well to the above cell-culture media (final concentration becomes 1×) and the plates were pre-incubated for 1 hour at 37° C. before stimulating with LPS.
After 1 hour compound pre-incubation, 10 μl per well of 20× concentrated LPS solution in RPMI media was added to give a final concentration of 1 μg/ml. The mixture was shaken and incubated the plates at 37° C. for an additional 18 hours.
155 μl of the supernatant was harvested from each well carefully (without the tip touching the bottom of the well) and to the remaining 50 μl/well of the cell culture plate was added 50 μl of Cell Titer Glo reagent. The mixture was incubated for 1-2 minutes on a shaker and the plate was read for luminescence intensity to determine the compound cytotoxicity. The cell culture supernatant collected above was used to carry out IL23 ELISA (65 μl-Supernatant) and IL10 ELISA (90 μl-Supernatant) as described below.
Human IL-23 (p19/p40) ELISA Protocol (e-Biosciences)
To 10.5 ml PBS add 50 μl of anti-IL23 (p19) was added capture antibody (2.5 μg/ml). The mixture was mixed well and 100 μl of the coating solution was added to each well of the 96 well white plates from Pierce. The wells were covered and incubated overnight at 4° C.
The anti-IL23 (p19)-antibody-coated plates were washed 2× using TBST (use plate washer) and blocked using 200 μl of 0.5% Casein for 1.5-2 hours at room temperature with shaking.
The plates were washed 2× using TBST and the supernatant was transferred (65 μl/well) to the above pre-blocked/IL23 (p19)-antibody-coated 96 well plate, and incubated at room temperature for 1.5 hours with shaking.
The plates were washed 4× using TBST (plate washer) and 100 μl/well detection antibody solution prepared from 2 μl of biotin labeled anti-IL-12 (p40/p70) antibody in 11 ml 1% BSA/PBS solution (1-5000 dilution) was added. The plates were incubated for 1 hour with shaking at room temperature.
Again, the plates were washed 4× with TBST and 100 μl of HRP labeled Streptavidin (R&D Systems) solution (10 μl/10 ml 1% BSA solution) was added, and the plates were incubated at room temperature for another 45 minutes with shaking.
After 45 minutes, the plates were washed with TBST 4× and 100 ul/well Super Signal ELISA Pico Chemiluminescent Substrate from Pierce (3.5 ml A+3.5 ml B+3.5 ml MQ water) was added. The plates were shaken for 1-2 minutes then read on a plate reader.

[2] = system: LPS induced IL23p19 in THP-1 cells; assay: LPS Induced IL23p19 in THP-1 Cells (with IFNγ Primed) Assay; type: cell-based; details: Homo sapiens; THP-1 cells primed with IFNγ 50 ng/mL, 1 μg/mL LPS, 18 hours, 10 pt; read-out: IL23-p19 ELISA, THP1-IFNy, LPS, 10 pt EC50
Description: LPS Induced IL23p19 in THP-1 Cells (with IFNγ Primed) Assay
THP-1 Cells (ATCC, Cat # TIB-202), Dimethyl Sulfoxide (DMSO) (Sigma-Aldrich, Cat # D2650), RPMI 1640 (Cellgro, Cat #10-040-CM), Fetal Bovine Serum (Sigma, Cat # F4135), Albumin From Bovine Serum (BSA) (Sigma-Aldrich, Cat # A7906), LPS (Serotype K-235, Sigma, Product Number L 2143), IFNγ (Peprotech, Cat #300-02), Capture antibody: Human IL-23p19 ELISA (e-Bioscience, Cat. #14-7238-85), Detection antibody: Primary Mouse Biotinylated anti-human IL-12 (p40/p70) (e-Bioscience, Cat. #13-7129-85), Secondary HRP-conjugated Streptavidin (R&D Systems, Cat # DY998), 1×PBST Washing Buffer (PBS-Tween tablet) (VWR International, Cat #80058-558), ELISA Blocking Buffer (PBS with 1% BSA), ELISA Dilution Buffer (PBS with 1% BSA), 384 Well Flat-Bottom, MaxiSorp Black Immuno Plates (Thermo Scientific, Cat #12-565-346), 384 Well Flat-Bottom, White Tissue Culture Plates (Thermo Scientific, Cat #12-565-343), Super Signal ELISA Pico Chemiluminescent Substrate (Thermo Scientific, Cat #37070), Cell Titer Glo reagent (Promega, Cat # G7573), Positive control, IKK2VI inhibitor (Calbiochem, Cat #401483), AquaMax 4000 plate washer (Molecular Devices), Luminometer, Wallac Victor2 1420 Multilabel Counter.
On day 1, 50K/well THP-1 cells were seeded and primed with IFNγ (50 ng/mL) in 384-well plates for about 18 hours in RPMI media with 10% FBS. On day 2, the compound was serially diluted in DMSO from 5 mM in 3-fold dilutions, and then diluted 1:125 in RPMI media with 10% FBS. 50 μL/well 2× compound was added to 50 μL/well THP-1 cells (with IFNγ primed) in duplicate in 384 well tissue culture plates. The cells were pre-incubated with compound for 1 hour at 37° C., 5% CO2 before addition of 10 μL/well 11×LPS to give a final concentration of 1 μg/mL LPS. Day 3, after stimulation for 18 hours at 37° C., 5% CO2, the assay plate was centrifuged and 70 μL/well supernatant was harvested. IL-23p19 protein in 70 μL/well of supernatant was measured by sandwich ELISA, and 25 μl/well Cell Titer Glo reagent was added to the remaining cells to measure compound toxicity.
Human IL-23p19 Sandwich ELISA:
Maxisorp immuno ELISA plates were pre-coated with 25 μL/well of anti-IL-23p19 capture antibody (2.5 ug/mL) in PBS overnight at room temperature. After washing with 1×PBST, the plates were blocked using 100 μL/well of 1% BSA in PBS for 2 hours at room temperature. The plates were washed three times with 1×PBST and 70 μL/well supernatant were added. The plates were incubated at room temperature for 2 hours with shaking and washed three times with 1×PBST. 25 μL/well of biotin labeled anti-IL-12 (p40/p70) detection antibody (100 ng/mL) in PBS with 1% BSA was added and the plates were incubated at room temperature for 2 hours with shaking. After washing three times with 1×PBST, 25 μL/well of streptavidin-HRP (1:200) in PBS with 1% BSA was added and the plates were incubated at room temperature for 20 minutes with shaking. The plates were washed three times with 1×PBST and 25 μL/well of Super Signal ELISA Pico Chemiluminescent Substrate were added. The plates were read with a luminometer, and the chemiluminescence values were entered into Athena (Rigel) for curve fitting, EC50 calculation, and database storage.

| Structure (SMILES) | EC50 [2] [nM] | EC50 [1] [nM] |
| --- | --- | --- |
| CN(CCN1CCOCC1)c1ccc(NC(=O)c2csc(-c3cn[nH]c3)n2)c(N2CCCCC2)c1 [I-71, N-(4-(methyl(2-morpholinoethyl)amino)-2-(piperidin-1-yl)phenyl)-2-(1H-pyrazol-4-yl)thiazole-4-carboxamide] | 19300 | 2280 |
| O=C(Nc1ccc(CN2CCOCC2)cc1N1CCCCC1)c1cccc(-c2cn[nH]c2)n1 [I-48, N-(4-(morpholinomethyl)-2-(piperidin-1-yl)phenyl)-6-(1H-pyrazol-4-yl)picolinamide] | 177 | 468 |
| O=C(Nc1ccc(N2CCOCC2)cc1N1CCC(O)CC1)c1cccc(-c2cn[nH]c2)n1 [I-10, N-(2-(4-hydroxypiperidin-1-yl)-4-morpholinophenyl)-6-(1H-pyrazol-4-yl)picolinamide] | 303 | 1740 |
| O=C(Nc1cc(CCN2CCOCC2)ccc1N1CCCCC1)c1ccc(-c2cn[nH]c2)o1 [I-67, N-(5-(2-morpholinoethyl)-2-(piperidin-1-yl)phenyl)-5-(1H-pyrazol-4-yl)furan-2-carboxamide] | 307 | 480 |
| O=C(Nc1ccc(N2CCOCC2)cc1N1CCCC1)c1cccc(-c2cn[nH]c2)n1 [I-22, N-(4-morpholino-2-(pyrrolidin-1-yl)phenyl)-6-(1H-pyrazol-4-yl)picolinamide] | 3230 | 16400 |
| O=C(Nc1ccc(N2CCOCC2)cc1N1CCCCC1)c1csc(-c2cn[nH]c2)n1 [I-38, N-(4-morpholino-2-(piperidin-1-yl)phenyl)-2-(1H-pyrazol-4-yl)thiazole-4-carboxamide] | 31000 | 3980 |
| O=C(Nc1ccc(CCN2CCOCC2)cc1N1CCCCC1)c1csc(-c2cn[nH]c2)n1 [I-56, N-(4-(2-morpholinoethyl)-2-(piperidin-1-yl)phenyl)-2-(1H-pyrazol-4-yl)thiazole-4-carboxamide] | 2370 | 9560 |
| O=C(Nc1cc(OCCN2CCOCC2)ccc1N1CCCCC1)c1ccc(-c2cn[nH]c2)o1 [I-28, N-(5-(2-morpholinoethoxy)-2-(piperidin-1-yl)phenyl)-5-(1H-pyrazol-4-yl)furan-2-carboxamide] | 189 | 63.8 |

Compounds with a lower EC50 [2], results first:

| EC50 [2] [nM] | Structure (SMILES) | EC50 [1] [nM] |
| --- | --- | --- |
| 76.4 | O=C(Nc1ccc(N2CCOCC2)cc1N1CCC(F)CC1)c1csc(-c2cn[nH]c2)n1 [I-6, N-(2-(4-fluoropiperidin-1-yl)-4-morpholinophenyl)-2-(1H-pyrazol-4-yl)thiazole-4-carboxamide] | 114 |
| 167 | O=C(Nc1ccc(CC(=O)N2CCOCC2)cc1N1CCCCC1)c1csc(-c2cn[nH]c2)n1 [I-53, N-(4-(2-morpholino-2-oxoethyl)-2-(piperidin-1-yl)phenyl)-2-(1H-pyrazol-4-yl)thiazole-4-carboxamide] | 408 |
| 84.1 | O=C(Nc1ccc(N2CCOCC2)cc1N1CCC(O)CC1)c1csc(-c2cn[nH]c2)n1 [I-12, N-(2-(4-hydroxypiperidin-1-yl)-4-morpholinophenyl)-2-(1H-pyrazol-4-yl)thiazole-4-carboxamide] | 60 |
| 130 | O=C(Nc1ccc(CN2CCOCC2)cc1N1CCCCC1)c1csc(-c2cn[nH]c2)n1 [I-50, N-(4-(morpholinomethyl)-2-(piperidin-1-yl)phenyl)-2-(1H-pyrazol-4-yl)thiazole-4-carboxamide] | 71.7 |
| 65.6 | O=C(Nc1ccc(CC(=O)N2CCOCC2)cc1N1CCCCC1)c1cccc(-c2cn[nH]c2)n1 [I-51, N-(4-(2-morpholino-2-oxoethyl)-2-(piperidin-1-yl)phenyl)-6-(1H-pyrazol-4-yl)picolinamide] | 154 |
| 36 | CN1CCN(c2ccc(NC(=O)c3csc(-c4cn[nH]c4)n3)c(N3CCC(F)CC3)c2)CC1 [I-9, N-(2-(4-fluoropiperidin-1-yl)-4-(4-methylpiperazin-1-yl)phenyl)-2-(1H-pyrazol-4-yl)thiazole-4-carboxamide] | 67.2 |
| 164 | O=C(Nc1ccc(C(=O)N2CCOCC2)cc1N1CCCCC1)c1csc(-c2cn[nH]c2)n1 [I-47, N-(4-(morpholine-4-carbonyl)-2-(piperidin-1-yl)phenyl)-2-(1H-pyrazol-4-yl)thiazole-4-carboxamide] | 2460 |
| 117 | O=C(Nc1ccc(C(=O)N2CCOCC2)cc1N1CCCCC1)c1cccc(-c2cn[nH]c2)n1 [I-45, N-(4-(morpholine-4-carbonyl)-2-(piperidin-1-yl)phenyl)-6-(1H-pyrazol-4-yl)picolinamide] | 84 |
| 145 | O=C(Nc1ccc(N2CCOCC2)cc1N1CCC(F)CC1)c1ccc(-c2cn[nH]c2)o1 [I-5, N-(2-(4-fluoropiperidin-1-yl)-4-morpholinophenyl)-5-(1H-pyrazol-4-yl)furan-2-carboxamide] | 182 |
